Patent US20220251141A1, “IMMUNOMODULATORS” (Bristol-Myers Squibb Company, priority 2019, published 2022)
pIC50: −log10 of the molar value. Counter-ions that a name gives are not always drawn. Numbered stars: 1 amine (or outer) side, 2 acyl side, 3 side chain; on linkers, the order of the positions; unused ones are H or OH. Bridge positions count the residues as written; N and C are the ends. Square brackets hold non-standard residues; d marks the D form. Side chains are listed from the residue outwards. Peptide text beside a SMILES is read from it. * marks the point of attachment. X6 = CC(C)C[C@H](N[*:1])C(=O)C1C[C@H](O)C[C@H]1C(=O)[*:2]; Trp(1-CH2CO2Me) = COC(=O)Cn1cc(C[C@H](N)C(=O)O)c2ccccc21; Trp(1-CH2COOH) = N[C@@H](Cc1cn(CC(=O)O)c2ccccc12)C(=O)O; NHCH2CH2Ph(3,4-OCH2O) = c1cc2c(cc1CCN*)OCO2; Phe(4-F) = N[C@@H](Cc1ccc(F)cc1)C(=O)O; NHCH2CHPh2 = c1ccc(C(CN*)c2ccccc2)cc1; Dab(CONH2) = NC(=O)NCC[C@H](N)C(=O)O; Hyp = O=C(O)[C@@H]1C[C@@H](O)CN1; NHcycloheptyl = C1CCCC(N*)CC1; NMeNle = CCCC[C@H](NC)C(=O)O; Pen = CC(C)(S)[C@H](N)C(=O)O; NMeC = CN[C@@H](CS)C(=O)O; Pip = O=C(O)[C@@H]1CCCCN1; NMeA = CN[C@@H](C)C(=O)O; X7 = COc1ccc(CN*)c(OC)c1; Dab = NCC[C@H](N)C(=O)O; Dap = NC[C@H](N)C(=O)O; NH(heptyl) = CCCCCCCN*; Boc = CC(C)(C)OC(=O)*; CO = O=C([*:1])[*:2]; Piv = CC(C)(C)C(=O)*; Tfa = O=C(C(F)(F)F)*

Molecular target: T1, PD-1/PD-L1 (Homo sapiens, UniProt Q9NZQ7)
T1 construct: TVMV protease site linker (C); made in house; host or cells: HEK293T cells
Test: PD-1/PD-L1 Homogenous Time-Resolved Fluorescence (HTRF) binding assay
Conditions: PD-L1-His 10 nM final, PD-1-Ig 20 nM final; inhibitors pre-incubated with PD-L1-His for 15 m
Method in brief: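 Compounds pre-incubated 15 min with human PD-L1(18-239)-His (10 nM final), then PD-1(25-167)-Ig (20 nM final) added for 15 min, in dPBS with 0.1% BSA and 0.05% Tween-20. Eu-cryptate anti-Ig (1 nM) and APC anti-His (20 nM) added, 30 min equilibration, 665/620 nm ratio read; IC50 reported.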

| SMILES | pIC50 |
| --- | --- |
| CCCC[C@H]1C(=O)N(C)[C@@H](CCCC)C(=O)N[C@@H](CC(C)C)C(=O)N[C@H](C(=O)NCC(N)=O)CSCC(=O)N[C@@H](Cc2ccc(O)cc2)C(=O)N(C)[C@@H](C)C(=O)N[C@@H](CC(N)=O)C(=O)N2CCC[C@H]2C(=O)N[C@@H](CNC(=O)NCC(c2ccccc2)c2ccccc2)C(=O)N[C@@H](CC(C)C)C(=O)N2C[C@H](O)C[C@H]2C(=O)N[C@@H](Cc2c[nH]c3ccccc23)C(=O)N[C@@H](CCNC(=O)NCC(c2ccccc2)c2ccccc2)C(=O)N[C@@H](Cc2cn(CC(=O)O)c3ccccc23)C(=O)N1C [Example 1042] ({CH2CO}-Y[NMeA]NP[Dap]([CO-NHCH2CHPh2])L[Hyp]W[Dab]([CO-NHCH2CHPh2])[Trp(1-CH2COOH)][NMeNle][NMeNle]LCG-NH2; thioether N-14) | 7.94 |
| CCCC[C@H]1C(=O)N(C)[C@@H](CCCC)C(=O)N[C@@H](CC(C)C)C(=O)N[C@H](C(=O)NCC(N)=O)CSCC(=O)N[C@@H](Cc2ccc(O)cc2)C(=O)N(C)[C@@H](C)C(=O)N[C@@H](CC(N)=O)C(=O)N2CCC[C@H]2C(=O)N[C@@H](CNC(=O)NCc2ccc(OC)cc2OC)C(=O)N[C@@H](CC(C)C)C(=O)N2C[C@H](O)C[C@H]2C(=O)N[C@@H](Cc2c[nH]c3ccccc23)C(=O)N[C@@H](CCN)C(=O)N[C@@H](Cc2cn(CC(=O)O)c3ccccc23)C(=O)N1C [Example 1043] ({CH2CO}-Y[NMeA]NP[Dap]([CO-X7])L[Hyp]W[Dab][Trp(1-CH2COOH)][NMeNle][NMeNle]LCG-NH2; thioether N-14) | 8.52 |
| CCCC[C@H]1C(=O)N(C)[C@@H](CCCC)C(=O)N[C@@H](CC(C)C)C(=O)N[C@H](C(=O)NCC(N)=O)CSCC(=O)N[C@@H](Cc2ccc(O)cc2)C(=O)N(C)[C@@H](C)C(=O)N[C@@H](CC(N)=O)C(=O)N2CCC[C@H]2C(=O)N[C@@H](CNC(=O)NCc2ccc(OC)cc2OC)C(=O)N[C@@H](CC(C)C)C(=O)N2C[C@H](O)C[C@H]2C(=O)N[C@@H](Cc2c[nH]c3ccccc23)C(=O)N[C@@H](CCNC(=O)NCc2ccc(OC)cc2OC)C(=O)N[C@@H](Cc2cn(CC(=O)O)c3ccccc23)C(=O)N1C [Example 1044] ({CH2CO}-Y[NMeA]NP[Dap]([CO-X7])L[Hyp]W[Dab]([CO-X7])[Trp(1-CH2COOH)][NMeNle][NMeNle]LCG-NH2; thioether N-14) | 8.59 |
| CCCC[C@H]1C(=O)N(C)[C@@H](CCCC)C(=O)N[C@@H](CC(C)C)C(=O)N[C@H](C(=O)NCC(N)=O)CSCC(=O)N[C@@H](Cc2ccc(O)cc2)C(=O)N(C)[C@@H](C)C(=O)N[C@@H](CC(N)=O)C(=O)N2CCC[C@H]2C(=O)N[C@@H](CNC(=O)NC2CCCCCC2)C(=O)N[C@@H](CC(C)C)C(=O)N2C[C@H](O)C[C@H]2C(=O)N[C@@H](Cc2c[nH]c3ccccc23)C(=O)N[C@@H](CCNC(=O)NC2CCCCCC2)C(=O)N[C@@H](Cc2cn(CC(=O)O)c3ccccc23)C(=O)N1C [Example 1045] ({CH2CO}-Y[NMeA]NP[Dap]([CO-NHcycloheptyl])L[Hyp]W[Dab]([CO-NHcycloheptyl])[Trp(1-CH2COOH)][NMeNle][NMeNle]LCG-NH2; thioether N-14) | 8.34 |
| CCCC[C@H]1C(=O)N(C)[C@@H](CCCC)C(=O)N[C@@H](CC(C)C)C(=O)N[C@H](C(=O)NCC(N)=O)CSCC(=O)N[C@@H](Cc2ccc(O)cc2)C(=O)N(C)[C@@H](C)C(=O)N[C@@H](CC(N)=O)C(=O)N2CCC[C@H]2C(=O)N[C@@H](CNC(=O)C(F)(F)F)C(=O)N[C@@H](CC(C)C)C(=O)N2C[C@H](O)C[C@H]2C(=O)N[C@@H](Cc2c[nH]c3ccccc23)C(=O)N[C@@H](CCN)C(=O)N[C@@H](Cc2cn(CC(=O)O)c3ccccc23)C(=O)N1C [Example 1046] ({CH2CO}-Y[NMeA]NP[Dap](Tfa)L[Hyp]W[Dab][Trp(1-CH2COOH)][NMeNle][NMeNle]LCG-NH2; thioether N-14) | 8.59 |
| CCCC[C@H]1C(=O)N(C)[C@@H](CCCC)C(=O)N[C@@H](CC(C)C)C(=O)N[C@H](C(=O)NCC(N)=O)CSCC(=O)N[C@@H](Cc2ccc(O)cc2)C(=O)N(C)[C@@H](C)C(=O)N[C@@H](CC(N)=O)C(=O)N2CCC[C@H]2C(=O)N[C@@H](CNC(=O)NCCc2ccc3c(c2)OCO3)C(=O)N[C@@H](CC(C)C)C(=O)N2C[C@H](O)C[C@H]2C(=O)N[C@@H](Cc2c[nH]c3ccccc23)C(=O)N[C@@H](CCNC(=O)NCCc2ccc3c(c2)OCO3)C(=O)N[C@@H](Cc2cn(CC(=O)O)c3ccccc23)C(=O)N1C [Example 1048] ({CH2CO}-Y[NMeA]NP[Dap]([CO-NHCH2CH2Ph(3,4-OCH2O)])L[Hyp]W[Dab]([CO-NHCH2CH2Ph(3,4-OCH2O)])[Trp(1-CH2COOH)][NMeNle][NMeNle]LCG-NH2; thioether N-14) | 8.96 |
| CCCC[C@H]1C(=O)N(C)[C@@H](CCCC)C(=O)N[C@@H](CC(C)C)C(=O)N[C@H](C(=O)NCC(N)=O)CSCC(=O)N[C@@H](Cc2ccc(O)cc2)C(=O)N(C)[C@@H](C)C(=O)N[C@@H](CC(N)=O)C(=O)N2CCC[C@H]2C(=O)N[C@@H](CNC(=O)OC(C)(C)C)C(=O)N[C@@H](CC(C)C)C(=O)C2C[C@H](O)C[C@H]2C(=O)N[C@@H](Cc2c[nH]c3ccccc23)C(=O)N[C@@H](CCNC(N)=O)C(=O)N[C@@H](Cc2cn(CC(=O)OC)c3ccccc23)C(=O)N1C (stereo partly shown) [Example 2001] ({CH2CO}-Y[NMeA]NP[Dap](Boc)[X6]W[Dab(CONH2)][Trp(1-CH2CO2Me)][NMeNle][NMeNle]LCG-NH2; thioether N-13) | 8.47 |
| CCCC[C@H]1C(=O)N(C)[C@@H](CCCC)C(=O)N[C@@H](CC(C)C)C(=O)N[C@H](C(=O)NCC(N)=O)CSCC(=O)N[C@@H](Cc2ccc(O)cc2)C(=O)N(C)[C@@H](C)C(=O)N[C@@H](CC(N)=O)C(=O)N2CCC[C@H]2C(=O)N[C@@H](CNC(=O)OC(C)(C)C)C(=O)N[C@@H](CC(C)C)C(=O)C2C[C@H](O)C[C@H]2C(=O)N[C@@H](Cc2c[nH]c3ccccc23)C(=O)N[C@@H](CCNC(=O)OC(C)(C)C)C(=O)N[C@@H](Cc2cn(CC(=O)OC)c3ccccc23)C(=O)N1C (stereo partly shown) [Example 2002] ({CH2CO}-Y[NMeA]NP[Dap](Boc)[X6]W[Dab](Boc)[Trp(1-CH2CO2Me)][NMeNle][NMeNle]LCG-NH2; thioether N-13) | 8.92 |
| CCCCCCCNC(=O)NCC[C@@H]1NC(=O)[C@H](Cc2c[nH]c3ccccc23)NC(=O)[C@@H]2C[C@@H](O)CN2C(=O)[C@H](CC(C)C)NC(=O)[C@H](CNC(=O)NCCCCCCC)NC(=O)[C@@H]2CCCN2C(=O)[C@H](CC(N)=O)NC(=O)[C@H](C)N(C)C(=O)[C@H](Cc2ccc(O)cc2)NC(=O)CSC[C@@H](C(=O)NCC(N)=O)NC(=O)[C@H](CC(C)C)NC(=O)[C@H](CCCC)N(C)C(=O)[C@H](CCCC)N(C)C(=O)[C@H](Cc2cn(CC(=O)OC)c3ccccc23)NC1=O [Example 2003] ({CH2CO}-Y[NMeA]NP[Dap]([CO-NH(heptyl)])L[Hyp]W[Dab]([CO-NH(heptyl)])[Trp(1-CH2CO2Me)][NMeNle][NMeNle]LCG-NH2; thioether N-14) | 7.62 |
| CCCC[C@H]1C(=O)N(C)[C@@H](CCCC)C(=O)N[C@@H](CC(C)C)C(=O)N(C)[C@H](C(N)=O)CSCC(=O)N[C@@H](Cc2ccc(F)cc2)C(=O)N2CCCC[C@H]2C(=O)N[C@@H](CC(=O)N(C)C)C(=O)N2CCC[C@H]2C(=O)N[C@@H](Cc2c[nH]cn2)C(=O)N[C@@H](CC(C)C)C(=O)N2C[C@H](O)C[C@H]2C(=O)N[C@@H](Cc2c[nH]c3ccccc23)C(=O)N[C@@H](CO)C(=O)N[C@@H](Cc2cn(CC(=O)O)c3ccccc23)C(=O)N1C [Example 10002] ({CH2CO}-[Phe(4-F)][Pip]D(NMe2)PHL[Hyp]WS[Trp(1-CH2COOH)][NMeNle][NMeNle]L[NMeC]-NH2; thioether N-14) | 7.28 |
| CCCC[C@H]1C(=O)N(C)[C@@H](CCCC)C(=O)N[C@@H](CC(C)C)C(=O)N(C)[C@H](C(N)=O)CSCC(=O)N[C@@H](Cc2ccc(F)cc2)C(=O)N2CCCC[C@H]2C(=O)N[C@@H](CC(=O)O)C(=O)N2CCC[C@H]2C(=O)N[C@@H](CN)C(=O)N[C@@H](CC(C)C)C(=O)N2C[C@H](O)C[C@H]2C(=O)N[C@@H](Cc2c[nH]c3ccccc23)C(=O)N[C@@H](CCN)C(=O)N[C@@H](Cc2cn(CC(=O)O)c3ccccc23)C(=O)N1C [Example 10003] ({CH2CO}-[Phe(4-F)][Pip]DP[Dap]L[Hyp]W[Dab][Trp(1-CH2COOH)][NMeNle][NMeNle]L[NMeC]-NH2; thioether N-14) | 7.92 |
| CCCC[C@H]1C(=O)N(C)[C@@H](CCCC)C(=O)N[C@@H](CC(C)C)C(=O)N(C)[C@H](C(N)=O)CSCC(=O)N[C@@H](Cc2ccc(F)cc2)C(=O)N2CCCC[C@H]2C(=O)N[C@@H](CC(=O)O)C(=O)N2CCC[C@H]2C(=O)N[C@@H](Cc2c[nH]cn2)C(=O)N[C@@H](CC(C)C)C(=O)N2C[C@H](O)C[C@H]2C(=O)N[C@@H](Cc2c[nH]c3ccccc23)C(=O)N[C@@H](CO)C(=O)N[C@@H](Cc2cn(CC(=O)O)c3ccccc23)C(=O)N1C [Example 10004] ({CH2CO}-[Phe(4-F)][Pip]DPHL[Hyp]WS[Trp(1-CH2COOH)][NMeNle][NMeNle]L[NMeC]-NH2; thioether N-14) | 7.96 |
| CCCC[C@H]1C(=O)N(C)[C@@H](CCCC)C(=O)N[C@@H](CC(C)C)C(=O)N[C@H](C(N)=O)C(C)(C)SCC(=O)N[C@@H](Cc2ccc(F)cc2)C(=O)N2CCCC[C@H]2C(=O)N[C@@H](CC(N)=O)C(=O)N2CCC[C@H]2C(=O)N[C@@H](CNC(=O)C(C)(C)C)C(=O)N[C@@H](CC(C)C)C(=O)N2C[C@H](O)C[C@H]2C(=O)N[C@@H](Cc2c[nH]c3ccccc23)C(=O)N[C@@H](CCN)C(=O)N[C@@H](Cc2cn(CC(=O)O)c3ccccc23)C(=O)N1C [Example 20010] ({CH2CO}-[Phe(4-F)][Pip]NP[Dap](Piv)L[Hyp]W[Dab][Trp(1-CH2COOH)][NMeNle][NMeNle]L[Pen]-NH2; thioether N-14) | 8.31 |
